Results published in US4174402A, “Method for the prophylaxis of SRS-A-induced symptoms” (priority 1978, dated 1979).
Read-outs that look alike come from different tables or passages of the source.

How the values were obtained:
[1] = test system: SRS-A; test: Test Procedure 2: inhibition of SRS-A-induced bronchoconstriction in anesthetized guinea pigs (Konzett-Rossler); assay type: in vivo, guinea pig; conditions: for % Inhibition (duration of anti-SRS-A effect) / Ratio of Peak Response to SRS-A in Paired Med./Co. Guinea Pigs ± S.E.: 10 mg/kg p.o.
From the text: SRS-A was harvested as described in Test Procedure 1 described hereinabove. A slightly modified Konzett-Rossler preparation [Arch. […] Guinea pigs weighing 350 to 450 g were anesthetized ip with 1.5 g/kg urethane. The jugular vein and trachea were cannulated and the guinea pigs were artificially respired at a rate of 40 strokes/minute. […] A side arm of the inflationary air cannula was connected to a pressure transducer and resistance to pulmonary inflation continuously recorded. […] Studies with SRS-A commenced after each guinea pig had attained maximum bronchoconstrictor response to histamine. […] The effects of the test compounds were studied by measuring SRS-A-induced bronchoconstriction side-by-side in two guinea pigs, one medicated and one control. Subsequent medicated/control pairs were alternated on two respiratory pumps. In this manner, the gradual decomposition of SRS-A and differences between the two pump/recorder systems, if any, were controlled. The dose (volume) of each sample of SRS-A was adjusted in each pair to keep the peaks of increases in bronchial resistance in control guinea pigs within 13 to 40 mmHg. Bronchoconstriction following injection of SRS-A was measured two ways; as the peak increase in resistance to inflation and, in view of the occasional irregular bronchoconstriction response curves following injection of SRS-A, as the sum of increases in bronchoconstriction over 10 minutes (pressure/time units). Pressure/time units were calculated by measuring the area under the curve of inflationary resistance where ordinates were set at 10 mm of pen excursion/10 mm pressure Hg and the abscissas were set at 15 mm of paper travel/minute. […] SRS-A-induced bronchoconstriction (increase in resistance) was calculated as the area under the curve and over the normal base line of resistance to inflation. […] The effects of the test compounds upon SRS-A-induced bronchoconstriction were expressed as ratios of the peaks and as ratios of the pressure/time units between the paired medicated and control guinea pigs. The consistency of paired responses to SRS-A in nonmedicated guinea pigs was determined in the same manner, by alternating the ratios of the results of guinea pigs on pumps one and two. […] SRS-A was injected 5 minutes after these latter injections. Compound b was prepared as a solution in 2% N-methylglucamine and used within 3 hours. […] Control guinea pigs received injections of the respective solvent vehicles. In order to compare the activities of compound b following iv and po routes of administration, compound b was also administered orally. […] Control guinea pigs received 2% N-methylglucamine. Fifteen minutes later, the guinea pigs were anesthetized, cannulated, and prepared for injections of SRS-A as described. The procedure was timed so that SRS-A was injected 1 hour after the oral administration of compound b. In a separate experiment, using the same methodology, the duration anti-SRS-A activity of compound b was determined after oral administration. Compound b was finely ground in a tissue homogenizer and prepared as a suspension in 0.5% gum tragacanth. A dose of 10 mg/kg was administered and anti-SRS-A effect studied at 1, 4 and 7 hr postmedication. The ratios of peak increases in intratracheal pressure between paired medicated and control guinea pigs was used to calculate percent inhibition.

[2] = test system: SRS-A; test: Test Procedure 1: antagonism of SRS-A-induced bronchoconstriction in unanesthetized guinea pigs; assay type: in vivo, guinea pig
Experimental: The test compounds were administered orally to four guinea pigs/group 1 hour before the SRS-A challenge. The test compounds were prepared as suspensions in 1% gum tragacanth. Bronchoconstriction was graded 1+ to 3+ according to severity (1+ denoted restlessness and slight thoracic dyspnea, 2+ denoted moderate thoracic dyspnea and 3+ denoted convulsive dyspnea, regardless of whether the guinea pig died of asphyxiation or recovered).

[3] = test system: bradykinin
Experimental: Antagonism of bradykinin-induced bronchoconstriction in guinea pigs was determined by measuring increases in resistance to artificial pulmonary inflation (Konzett-Rossler preparation). […] Due to large variations in bronchoconstricting responses among individual guinea pigs, each guinea pig serves as its own control and was challenged with bradykinin twice. The second response to bradykinin was expressed as percent of the first response to bradykinin. […] All guinea pigs having a first bradykinin response of less than 12 mm Hg were rejected as poor responders. […] In order to augment the bronchoconstrictor response, each guinea pig received 100 mcg propranolol/kg, iv, 5 minutes before the first injection of bradykinin (30 mcg/kg, iv). […] Five minutes after the injection of a test compound the guinea pigs received the second injection of bradykinin and the peak of the response determined. The effects of both test compounds were expressed as % inhibition of bradykinin-induced increase in bronchial resistance to forced inflation, as compared to the levels of bronchial resistance following iv administration of their respective solvent controls.

[4] = suspension, 1 hr before test, P 0.01
[5] = suspension, 4 hr before test, P 0.01
[6] = p.o. 3.3 mg/kg, solution, 1 hour
[7] = p.o. 10 mg/kg, solution, 1 hour

COc1ccc2c(c1)c1c(n2C(=O)c2ccccc2)CCC(C(=O)O)C1 (centres unmarked) [Compound b, 9-benzoyl-6-methoxy-1,2,3,4-tetrahydrocarbazole-3-carboxylic acid]
% Inhibition (duration of anti-SRS-A effect) [1, 4]: 81% | Ratio of Peak Response to SRS-A in Paired Med./Co. Guinea Pigs ± S.E. [1, 4]: 0.19 ± 0.05 | % Inhibition (duration of anti-SRS-A effect) [1, 5]: 68% | Ratio of Peak Response to SRS-A in Paired Med./Co. Guinea Pigs ± S.E. [1, 5]: 0.32 ± 0.08 | % Inhibition (duration of anti-SRS-A effect) ([1]; suspension, 7 hr before test): 0% | Ratio of Peak Response to SRS-A in Paired Med./Co. Guinea Pigs ± S.E. ([1]; suspension, 7 hr before test): 1.00 ± 0.15 | minimal effective dose ([1]; Cavia porcellus, intravenous, read-out: minimal active dose): 1 mg/kg | effect against SRS-A-induced bronchoconstriction (activity profile) ([1]; guinea pigs): effectiveness | % Inhibition (sum of increase in resistance over 10 min) ([1]; i.v. 0.3 mg/kg): 0% | Sum of Increase in Resist. to Infl. over 10 min, Avg Ratio Med/Co. Pairs ± S.E. ([1]; i.v. 0.3 mg/kg): 1.18 ± .33 | % Inhibition (peak increase in resistance) ([1]; i.v. 0.33 mg/kg): 0% | Peak Increase in Resistance to Inflation, Avg Ratio of Med/Co. Pairs ± S.E. ([1]; i.v. 0.33 mg/kg): 1.10 ± .19 | % Inhibition (peak increase in resistance) ([1]; i.v. 1.0 mg/kg): 54% | % Inhibition (sum of increase in resistance over 10 min) ([1]; i.v. 1.0 mg/kg): 45% | Peak Increase in Resistance to Inflation, Avg Ratio of Med/Co. Pairs ± S.E. ([1]; i.v. 1.0 mg/kg): 0.44 ± .07 | Sum of Increase in Resist. to Infl. over 10 min, Avg Ratio Med/Co. Pairs ± S.E. ([1]; i.v. 1.0 mg/kg): 0.55 ± .09 | % Inhibition (peak increase in resistance) ([1]; i.v. 3.3 mg/kg): 89% | % Inhibition (sum of increase in resistance over 10 min) ([1]; i.v. 3.3 mg/kg): 83% | Peak Increase in Resistance to Inflation, Avg Ratio of Med/Co. Pairs ± S.E. ([1]; i.v. 3.3 mg/kg): 0.11 ± .04 | Sum of Increase in Resist. to Infl. over 10 min, Avg Ratio Med/Co. Pairs ± S.E. ([1]; i.v. 3.3 mg/kg): 0.17 ± .05 | % Inhibition (peak increase in resistance) ([1]; i.v. 10 mg/kg): 95% | % Inhibition (sum of increase in resistance over 10 min) ([1]; i.v. 10 mg/kg): 86% | Peak Increase in Resistance to Inflation, Avg Ratio of Med/Co. Pairs ± S.E. ([1]; i.v. 10 mg/kg): 0.05 ± .03 | Sum of Increase in Resist. to Infl. over 10 min, Avg Ratio Med/Co. Pairs ± S.E. ([1]; i.v. 10 mg/kg): 0.14 ± .04 | inhibition of SRS-A-induced increases in resistance to inflation ([1]; intravenous): inhibited SRS-A-induced increases in resistance to inflation in a dose-related manner | potency relative to phenylbutazone, times more potent (95% confidence limits) ([1]; intravenous, calculated by peaks of increases in resistance): 3.8 (95% confidence limits of 1.8 to 7.8) times | absorption from the GI tract ([1]; oral solution in 2% N-methylglucamine, suggested by activity ratio): readily absorbed from the GI tract | inhibition of SRS-A-induced bronchoconstriction ([1]; oral solutions): dose-related inhibition | % Inhibition (peak increase in resistance) [1, 6]: 36% | % Inhibition (sum of increase in resistance over 10 min) [1, 6]: 47% | Peak Increase in Resistance to Inflation, Avg Ratio of Med/Co. Pairs ± S.E. [1, 6]: 0.64 ± .13 | Sum of Increase in Resist. to Infl. over 10 min, Avg Ratio Med/Co. Pairs ± S.E. [1, 6]: 0.53 ± .13 | % Inhibition (peak increase in resistance) [1, 7]: 87% | % Inhibition (sum of increase in resistance over 10 min) [1, 7]: 92% | Sum of Increase in Resist. to Infl. over 10 min, Avg Ratio Med/Co. Pairs ± S.E. [1, 7]: 0.08 ± .03 | duration of inhibition of SRS-A-induced bronchoconstriction ([1]; single oral dose 10 mg/kg, suspension): 4 h | iv/po activity ratio (po AED50/iv AED50) ([1]; solution in 2% N-methylglucamine): 2.6 | Incidence of Severe Bronchospasms, % ([2]; 0.4 mg/kg p.o.): 75% | Incidence of Severe Bronchospasms, No. Bronchosp./No. Tested ([2]; 0.4 mg/kg p.o.): 15/20 | Incidence of Severe Bronchospasms, % ([2]; 1.6 mg/kg p.o.): 42% | Incidence of Severe Bronchospasms, No. Bronchosp./No. Tested ([2]; 1.6 mg/kg p.o.): 8/19 | inhibition of severe SRS-A induced bronchospasm ([2]; 6.2 mg/kg oral): completely inhibited | Incidence of Severe Bronchospasms, % ([2]; 6.2 mg/kg p.o.): 0% | Incidence of Severe Bronchospasms, No. Bronchosp./No. Tested ([2]; 6.2 mg/kg p.o.): 0/19 | Incidence of Severe Bronchospasms, % ([2]; 25 mg/kg p.o.): 4% | Incidence of Severe Bronchospasms, No. Bronchosp./No. Tested ([2]; 25 mg/kg p.o.): 1/23 | Incidence of Severe Bronchospasms, % ([2]; 100 mg/kg p.o.): 0% | Incidence of Severe Bronchospasms, No. Bronchosp./No. Tested ([2]; 100 mg/kg p.o.): 0/20 | Incidence of Severe Bronchospasms, % ([2]; 400 mg/kg p.o.): 0% | Incidence of Severe Bronchospasms, No. Bronchosp./No. Tested ([2]; 400 mg/kg p.o.): 0/10 | ED50 ([2]; Cavia porcellus, po, 1 hour before SRS-A, read-out: AED50): 2.3 mg/kg | Potency (Phenylbutazone = 1) (95% confidence limits) ([2]; p.o., 1 hour before SRS-A): 4.0 (2.1-8.2) | effect against bradykinin-induced bronchoconstriction (activity profile) ([3]; guinea pigs): effectiveness | inhibition of bradykinin-induced increases in bronchial resistance ([3]; iv): inhibited bradykinin-induced increases in bronchial resistance to inflation in a dose-related manner | % Inhibition ([3]; iv 0.33 mg/kg): 12% | Average Increase In Bronchial Resistance (2nd Response in % of 1st Response ± S.E.) ([3]; iv 0.33 mg/kg): 76 ± 13% | % Inhibition ([3]; iv 1.0 mg/kg): 48% | Average Increase In Bronchial Resistance (2nd Response in % of 1st Response ± S.E.) ([3]; iv 1.0 mg/kg): 45 ± 7% | % Inhibition ([3]; iv 3.3 mg/kg): 81% | Average Increase In Bronchial Resistance (2nd Response in % of 1st Response ± S.E.) ([3]; iv 3.3 mg/kg): 16 ± 3% | % Inhibition ([3]; iv 10.0 mg/kg): 84% | Average Increase In Bronchial Resistance (2nd Response in % of 1st Response ± S.E.) ([3]; iv 10.0 mg/kg): 14 ± 5% | % Inhibition ([3]; iv 33.0 mg/kg): 93% | Average Increase In Bronchial Resistance (2nd Response in % of 1st Response ± S.E.) ([3]; iv 33.0 mg/kg): 6 ± 4% | inhibition of bradykinin-induced bronchoconstriction ([3]; iv 3.3, 10 and 33 mg/kg): nearly complete inhibition
